Test results: US9527828B2, “Method for expanding hematopoietic stem cells using heterocyclic compound” (Nissan Chemical Industries, Ltd., priority 2007, dated 2016)

system: CD34^+CD38^− cells; assay: Expansion of CD34+CD38− cells from human cord blood-derived CD34+ cells (Example 2); assay type: cell-based; details: Homo sapiens, 168 h, 1 μg/mL compound, 50 ng/mL SCF, StemSpan SFEM, 7 days; based on number of CD34+CD38− cells in the absence of compound; read-out: Expansion efficiency
Method: The human cord blood-derived CD34^+ cells collected or purchased in Example 1 were plated on a 24-well plate (TPP) (10000 cells/1/mL/well). As the culture medium, StemSpan SFEM (Stemcell Technologies) containing 50 ng/mL SCF (Peprotech) was used, and Compounds No. 1 to 133 dissolved in dimethyl sulfoxide were added in an amount of 0.1% (v/v) to a final concentration of 1 μg/mL.
After the cells were incubated in liquid culture at 37° C. for 7 days in a CO2 incubator (5% CO2), the number of viable cells was counted by trypan blue assay. The number of CD34^+CD38^− cells was calculated as follows. After the incubation, the cells in the liquid culture was stained with a CD34 antibody (APC, Becton, Dickinson and Company) and a CD38 antibody (PE, Becton, Dickinson and Company), then washed with PBS(−) containing 2% (v/v) FBS and stained with propidium iodide (Sigma-Aldrich Japan) added to a final concentration of 5 μg/mL. The stained cells were analyzed with a flow cytometer JSAN (Bay Bioscience) to determined the proportion of CD34^+CD38^− cells, which was multiplied by the number of viable cells to calculate the number of CD34^+CD38^− cells.
The expansion efficiencies in the presence of 1 μg/mL of compounds based on the number of CD34^+CD38^− cells in the absence of them are shown in Tables 2 and 3 on a scale of A for expansion efficiencies of 10 or greater, B for expansion efficiencies of at least 5 and less than 10, and C for expansion efficiencies of at least 3 and less than 5.

Q: With `COc1ccc(-c2scc(/C(C)=N/NC(=O)c3ccc(C(=O)NC(C)c4ccc(NC(C)=O)cc4)s3)c2O)cc1` (stereo not shown) [compound 126] as the molecule, how does the fold induction at 1 µg/mL read?
A: ≥ 10

Q: `C/C(=N\NC(=O)c1ccc(C(=O)NCc2cccc(C(N)=O)c2)s1)c1csc(-c2ccc(Cl)c(Cl)c2)c1O` [compound 92] was tested. Which fold induction at 1 µg/mL did it give?
A: ≥ 10

Q: `C/C(=N\NC(=O)c1ccc(C(=O)NCc2ncccn2)s1)c1csc(-c2ccc(Cl)c(Cl)c2)c1O` [compound 36] was tested. Which fold induction at 1 µg/mL did it give?
A: ≥ 10

Q: `C/C(=N\NC(=O)c1ccc(C(=O)NCc2ccccc2C(N)=O)s1)c1csc(-c2ccc(OC(F)(F)F)cc2)c1O` [compound 104] was tested. Which fold induction at 1 µg/mL did it give?
A: ≥ 10

Q: With `C/C(=N\NC(=O)c1ccc(C(=O)NC2CCCC2)s1)c1csc(-c2ccc(Cl)c(Cl)c2)c1O` [compound 63] as the molecule, how does the fold induction at 1 µg/mL read?
A: 3 to 5

Q: Which fold induction at 1 µg/mL does the source give for `CCCN(C)C(=O)c1ccc(C(=O)N/N=C(\C)c2csc(-c3ccc(Cl)cc3)c2O)s1` [compound 76] here?
A: 3 to 5

Q: `COc1cc(CNC(=O)c2ccc(C(=O)N/N=C(\C)c3csc(-c4ccc(Cl)c(Cl)c4)c3O)s2)on1` [compound 7] was tested. Which fold induction at 1 µg/mL did it give?
A: ≥ 10

Q: How did the fold induction at 1 µg/mL turn out when `C/C(=N\NC(=O)c1ccc(C(=O)N(C)Cc2ccccc2)s1)c1csc(-c2ccc(Cl)c(Cl)c2)c1O` [compound 26] was run?
A: ≥ 10

Q: Which fold induction at 1 µg/mL does the source give for `C/C(=N\NC(=O)c1ccc(C(=O)NCCN2CCOCC2)s1)c1csc(-c2ccc(OC(F)(F)F)cc2)c1O` [compound 29] here?
A: ≥ 10

Q: For `C/C(=N\NC(=O)c1ccc(C(=O)NCc2cc[n+]([O-])cc2)s1)c1csc(-c2ccc(C(F)(F)F)cc2)c1O` [compound 57], which fold induction at 1 µg/mL is on record?
A: 5 to 10

Q: For `C/C(=N\NC(=O)c1ccc(C(=O)NCc2ccc(C(N)=O)cc2)s1)c1csc(-c2ccc(Cl)cc2)c1O` [compound 89], which fold induction at 1 µg/mL is on record?
A: ≥ 10

Q: With `C/C(=N\NC(=O)c1ccc(C(=O)NC2CCC(O)CC2)s1)c1csc(-c2ccc(Cl)c(Cl)c2)c1O` (stereo not shown) [compound 68] as the molecule, how does the fold induction at 1 µg/mL read?
A: 5 to 10

Q: `C/C(=N\NC(=O)c1ccc(C(=O)NCc2cnn(C)n2)s1)c1csc(-c2ccc(C(F)(F)F)cc2)c1O` [compound 54] was tested. Which fold induction at 1 µg/mL did it give?
A: 5 to 10

Q: For `C/C(=N\NC(=O)c1ccc(C(=O)NCc2ccc(C(N)=O)cc2)s1)c1csc(-c2ccc(C(C)(C)C)cc2)c1O` [compound 86], which fold induction at 1 µg/mL is on record?
A: ≥ 10

Q: `CC(=O)Nc1ccc(C(C)NC(=O)c2ccc(C(=O)N/N=C(\C)c3csc(-c4ccc(C(F)(F)F)cc4)c3O)s2)cc1` (stereo not shown) [compound 123] was tested. Which fold induction at 1 µg/mL did it give?
A: ≥ 10

Q: With `C/C(=N\NC(=O)c1ccc(C(=O)NCc2ccc(S(N)(=O)=O)cc2)s1)c1csc(-c2ccc(Cl)c(Cl)c2)c1O` [compound 61] as the molecule, how does the fold induction at 1 µg/mL read?
A: 5 to 10

Q: How did the fold induction at 1 µg/mL turn out when `C/C(=N\NC(=O)c1ccc(C(=O)NC(C)c2ccc(C(N)=O)cc2)s1)c1csc(-c2ccc(OC(F)(F)F)cc2)c1O` (stereo not shown) [compound 118] was run?
A: ≥ 10

Q: For `COc1ccc(-c2scc(/C(C)=N/NC(=O)c3ccc(C(=O)NCc4cccc(C(N)=O)c4)s3)c2O)cc1` [compound 98], which fold induction at 1 µg/mL is on record?
A: ≥ 10

Q: Which fold induction at 1 µg/mL does the source give for `C/C(=N\NC(=O)c1ccc(C(=O)NCc2cc(C)n(C)n2)s1)c1csc(-c2ccc(Br)cc2)c1O` [compound 127] here?
A: ≥ 10

Q: With `COc1cc(CNC(=O)c2ccc(C(=O)N/N=C(\C)c3csc(-c4ccc(OC(F)(F)F)cc4)c3O)s2)on1` [compound 15] as the molecule, how does the fold induction at 1 µg/mL read?
A: ≥ 10

Q: With `COc1cc(CNC(=O)c2ccc(C(=O)N/N=C(\C)c3csc(-c4ccc(Cl)cc4)c3O)s2)on1` [compound 17] as the molecule, how does the fold induction at 1 µg/mL read?
A: ≥ 10

Q: `C/C(=N\NC(=O)c1ccc(C(=O)NCCCCO)s1)c1csc(-c2ccc(Cl)c(Cl)c2)c1O` [compound 73] was tested. Which fold induction at 1 µg/mL did it give?
A: 5 to 10

Q: For `COCCNC(=O)c1ccc(C(=O)N/N=C(\C)c2csc(-c3ccc(Cl)c(Cl)c3)c2O)s1` [compound 22], which fold induction at 1 µg/mL is on record?
A: 5 to 10

Q: How did the fold induction at 1 µg/mL turn out when `C/C(=N\NC(=O)c1ccc(C(=O)NCc2cnc(C)cn2)s1)c1csc(-c2ccc(Cl)c(Cl)c2)c1O` [compound 39] was run?
A: 5 to 10

Q: How did the fold induction at 1 µg/mL turn out when `C/C(=N\NC(=O)c1ccc(C(=O)NCc2cnc(C)cn2)s1)c1csc(-c2ccc(OC(F)(F)F)cc2)c1O` [compound 14] was run?
A: ≥ 10

Q: For `C/C(=N\NC(=O)c1ccc(C(=O)NCc2ccnn2C)s1)c1csc(-c2ccc(Cl)cc2)c1O` [compound 58], which fold induction at 1 µg/mL is on record?
A: 5 to 10

Q: With `C/C(=N\NC(=O)c1ccc(C(=O)NCc2ccnnc2)s1)c1csc(-c2ccc(Cl)c(Cl)c2)c1O` [compound 43] as the molecule, how does the fold induction at 1 µg/mL read?
A: ≥ 10

Q: Which fold induction at 1 µg/mL does the source give for `C/C(=N\NC(=O)c1ccc(C(=O)NCc2ccccc2C(N)=O)s1)c1csc(-c2ccc(C(C)(C)C)cc2)c1O` [compound 100] here?
A: 3 to 5

Q: How did the fold induction at 1 µg/mL turn out when `C/C(=N\NC(=O)c1ccc(C(=O)NCc2cn(C)cn2)s1)c1csc(-c2ccc(Br)cc2)c1O` [compound 130] was run?
A: ≥ 10

Q: Which fold induction at 1 µg/mL does the source give for `C/C(=N\NC(=O)c1ccc(C(=O)NCc2cc[n+]([O-])cc2)s1)c1csc(-c2ccc(Cl)c(Cl)c2)c1O` [compound 3] here?
A: ≥ 10

Q: With `CC(=O)Nc1ccc(C(C)NC(=O)c2ccc(C(=O)N/N=C(\C)c3csc(-c4ccc(C(C)(C)C)cc4)c3O)s2)cc1` (stereo not shown) [compound 121] as the molecule, how does the fold induction at 1 µg/mL read?
A: 5 to 10

Q: `COc1ccc(-c2scc(/C(C)=N/NC(=O)c3ccc(C(=O)NCc4cn(C)cn4)s3)c2O)cc1` [compound 133] was tested. Which fold induction at 1 µg/mL did it give?
A: ≥ 10

Q: `C/C(=N\NC(=O)c1ccc(C(=O)N(C(C)C)C(C)C)s1)c1csc(-c2ccc(Cl)c(Cl)c2)c1O` [compound 28] was tested. Which fold induction at 1 µg/mL did it give?
A: ≥ 10

Q: With `C/C(=N\NC(=O)c1ccc(C(=O)NCc2cc(C)on2)s1)c1csc(-c2ccc(OC(F)(F)F)cc2)c1O` [compound 13] as the molecule, how does the fold induction at 1 µg/mL read?
A: ≥ 10

Q: `COc1ccc(-c2scc(/C(C)=N/NC(=O)c3ccc(C(=O)NCc4ccc(C(N)=O)cc4)s3)c2O)cc1` [compound 91] was tested. Which fold induction at 1 µg/mL did it give?
A: ≥ 10

Q: Which fold induction at 1 µg/mL does the source give for `C/C(=N\NC(=O)c1ccc(C(=O)NCc2cnn(C)n2)s1)c1csc(-c2ccc(Cl)c(Cl)c2)c1O` [compound 53] here?
A: 5 to 10

Q: Which fold induction at 1 µg/mL does the source give for `C/C(=N\NC(=O)c1ccc(C(=O)NCc2ccc(C(N)=O)cc2)s1)c1csc(-c2ccc(OC(F)(F)F)cc2)c1O` [compound 90] here?
A: ≥ 10

Q: How did the fold induction at 1 µg/mL turn out when `C/C(=N\NC(=O)c1ccc(C(=O)N(C)Cc2ccccn2)s1)c1csc(-c2ccc(Cl)c(Cl)c2)c1O` [compound 80] was run?
A: 3 to 5

Q: With `C/C(=N\NC(=O)c1ccc(C(=O)NCCCN2CCOCC2)s1)c1csc(-c2ccc(Br)cc2)c1O` [compound 33] as the molecule, how does the fold induction at 1 µg/mL read?
A: 5 to 10

Q: For `C/C(=N\NC(=O)c1ccc(C(=O)NC(C)c2ccc(C(N)=O)cc2)s1)c1csc(-c2ccc(Cl)c(Cl)c2)c1O` (stereo not shown) [compound 113], which fold induction at 1 µg/mL is on record?
A: ≥ 10

Q: How did the fold induction at 1 µg/mL turn out when `C/C(=N\NC(=O)c1ccc(C(=O)NCc2cccc(C(N)=O)c2)s1)c1csc(-c2ccc(Br)cc2)c1O` [compound 94] was run?
A: ≥ 10

Q: Which fold induction at 1 µg/mL does the source give for `C/C(=N\NC(=O)c1ccc(C(=O)NCc2cccs2)s1)c1csc(-c2ccc(Cl)c(Cl)c2)c1O` [compound 25] here?
A: 5 to 10

Q: Which fold induction at 1 µg/mL does the source give for `C/C(=N\NC(=O)c1ccc(C(=O)NC(C)C)s1)c1csc(-c2ccc(Cl)cc2)c1O` [compound 77] here?
A: 5 to 10

Q: `C/C(=N\NC(=O)c1ccc(C(=O)NC(C)c2ccc(C(N)=O)cc2)s1)c1csc(-c2ccc(Cl)cc2)c1O` (stereo not shown) [compound 117] was tested. Which fold induction at 1 µg/mL did it give?
A: ≥ 10

Q: For `C/C(=N\NC(=O)c1ccc(C(=O)NCc2ccccn2)s1)c1csc(-c2ccc(Cl)cc2)c1O` [compound 32], which fold induction at 1 µg/mL is on record?
A: 5 to 10

Q: With `C/C(=N\NC(=O)c1ccc(C(=O)NCc2cccc(C(N)=O)c2)s1)c1csc(-c2ccc(Cl)cc2)c1O` [compound 96] as the molecule, how does the fold induction at 1 µg/mL read?
A: ≥ 10

Q: For `C/C(=N\NC(=O)c1ccc(C(=O)NCc2ccccn2)s1)c1csc(-c2ccc(Cl)c(Cl)c2)c1O` [compound 72], which fold induction at 1 µg/mL is on record?
A: 5 to 10

Q: For `C/C(=N\NC(=O)c1ccc(C(=O)NCc2ccncc2)s1)c1csc(-c2ccc(Cl)c(Cl)c2)c1O` [compound 5], which fold induction at 1 µg/mL is on record?
A: ≥ 10

Q: Which fold induction at 1 µg/mL does the source give for `CCCNC(=O)c1ccc(C(=O)N/N=C(\C)c2csc(-c3ccc(Cl)cc3)c2O)s1` [compound 31] here?
A: ≥ 10

Q: With `COc1c(/C(C)=N/NC(=O)c2ccc(C(=O)NCc3ccncc3)s2)csc1-c1ccc(Cl)c(Cl)c1` [compound 42] as the molecule, how does the fold induction at 1 µg/mL read?
A: 5 to 10

Q: With `CNC(=O)c1ccc(C(=O)N/N=C(\C)c2csc(-c3ccc(Cl)cc3)c2O)s1` [compound 11] as the molecule, how does the fold induction at 1 µg/mL read?
A: ≥ 10

Q: Which fold induction at 1 µg/mL does the source give for `C/C(=N\NC(=O)c1ccc(C(=O)NCc2cc(C)on2)s1)c1csc(-c2ccc(C(F)(F)F)cc2)c1O` [compound 46] here?
A: 5 to 10

Q: How did the fold induction at 1 µg/mL turn out when `C/C(=N\NC(=O)c1ccc(C(=O)NCCN2CCOCC2)s1)c1csc(-c2ccc(Cl)c(Cl)c2)c1O` [compound 23] was run?
A: 5 to 10

Q: Which fold induction at 1 µg/mL does the source give for `COc1cc(CNC(=O)c2ccc(C(=O)N/N=C(\C)c3csc(-c4ccc(C(F)(F)F)cc4)c3O)s2)on1` [compound 50] here?
A: 5 to 10

Q: How did the fold induction at 1 µg/mL turn out when `C/C(=N\NC(=O)c1ccc(C(=O)NCc2cscn2)s1)c1csc(-c2ccc(Cl)c(Cl)c2)c1O` [compound 35] was run?
A: 5 to 10

Q: Which fold induction at 1 µg/mL does the source give for `C/C(=N\NC(=O)c1ccc(C(=O)NCc2cncn2C)s1)c1csc(-c2ccc(Cl)c(Cl)c2)c1O` [compound 51] here?
A: 5 to 10

Q: How did the fold induction at 1 µg/mL turn out when `C/C(=N\NC(=O)c1ccc(C(=O)NCc2ccc(C(N)=O)cc2)s1)c1csc(-c2ccc(C(F)(F)F)cc2)c1O` [compound 88] was run?
A: ≥ 10

Q: `C/C(=N\NC(=O)c1ccc(C(=O)NC(C)c2ccc(C(N)=O)cc2)s1)c1csc(-c2ccc(C(F)(F)F)cc2)c1O` (stereo not shown) [compound 116] was tested. Which fold induction at 1 µg/mL did it give?
A: ≥ 10
